Test results taken from patent publication US8946216B2, “Indazole derivatives useful as ERK inhibitors” (Merck Sharp & Dohme Corp., priority 2010, dated 2015).

Experiments:
[1] = molecular target: unphosphorylated Mouse ERK2 protein (inactive ERK2) (Mus musculus, UniProt P63085); test: Coupled ERK2 (cERK) assay, coupled MEK1/ERK2 IMAP; type: biochemical; details: 30 min preincubation with inactive ERK2, then activation by human MEK1; 30 μM ATP; fluorescence polarization; read-out: cERK2 IC50
Text: • 1. M. W. Pantoliana, E. C. Petrella, J. D. Kwasnoski, V. S. Lobanov, J. Myslik, E. Graf, T. Carver, E. Asel, B. A. Springer, P. Lane, F. R. Salemme, High-density miniaturized thermal shift assays as a general strategy for drug discovery, J. Biomol. Screen 6 (2001) 429-440 • 2. J. F. Brandts, L.-N. Lin, Study of strong to ultratight protein interactions using differential scanning calorimetry, Biochemistry 29 (1990) 6927-6940 • 3. Mayhood, T. W., Windsor, W. T., Ligand binding affinity determined by temperature-dependent circular dichroism: Cyclin-dependent kinase 2 inhibitors, Analytical Biochemistry 345 (2005) 187-197 Coupled ERK2 (cERK) Assay:
14 μl of kinase buffer (10 mM Tris.HCl pH 7.2, 10 mM MgCl2, 0.01% Tween-20, 1 mM DTT) containing 0.4 ng unphosphorylated Mouse ERK2 protein was added to each well of a black 384-well assay plate. […] DMSO concentration during initial incubation is 6.7%. ERK2 activity was determined to be insensitive to DMSO concentrations up to 20%. ERK2 was then activated and it's kinase activity measured by the addition of 10 μl kinase buffer with the following components (final concentration per reaction): 2 ng active (phosphorylated) human MEK1 protein and 4 μM (total) ERK2 IMAP substrate peptides (3.9 μM unlabeled IPTTPITTTYFFFK-CONH2 and 100 nM IPTTPITTTYFFFK(5-carboxyfluorescein)-CONH2) and 30 μM ATP. DMSO concentration during ERK activation was 4%. After one hour, reactions were terminated by addition of 60 μl IMAP detections beads in binding buffer (Molecular Devices). Binding was allowed to equilibrate for 30 minutes before reading the plate on an LJL Analyst Fluorescence Polarization plate reader. […] Active compounds were reconfirmed in an independent assay.

ERK protein = ERK protein (Homo sapiens, UniProt P28482); test: TdF (Temperature Dependence Fluorescence, thermal shift) assay for ERK; type: binding; details: read-out: TdF Kd; 3 μM ERK protein, 15, 50 or 100 μM compound, Sypro Orange; Kd calculated from ΔTm; uncertainty estimated ±50%
Sequence of ERK protein (P28482 2-360): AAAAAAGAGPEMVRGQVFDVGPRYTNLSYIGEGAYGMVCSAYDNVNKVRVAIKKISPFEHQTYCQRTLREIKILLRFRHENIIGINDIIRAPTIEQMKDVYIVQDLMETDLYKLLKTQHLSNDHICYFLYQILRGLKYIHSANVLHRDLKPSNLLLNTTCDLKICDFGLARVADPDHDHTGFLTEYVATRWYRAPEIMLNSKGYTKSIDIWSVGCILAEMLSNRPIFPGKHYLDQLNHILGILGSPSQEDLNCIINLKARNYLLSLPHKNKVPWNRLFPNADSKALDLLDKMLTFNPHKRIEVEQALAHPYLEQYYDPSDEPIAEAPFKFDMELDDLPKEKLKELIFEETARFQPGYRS
Text: Assays: TdF Assay for ERK
The SAR (Structure Activity Relationship) for ERK ligands covered by this invention was interrogated using the TdF (Temperature Dependence Fluorescence) assay or best known as thermal shift assay. The TdF assay was mainly conducted in the 96-well based CHROMO-4 real time fluorescence plate reader (BioRad). The Sypro Orange (Sigma-Aldrich), environmentally sensitive fluorescence dye, was used to monitor the protein folding-unfolding transition. Protein-ligand binding was gauged by the change (or shift) in the unfolding transition temperature (ΔTm) acquired at protein alone with respect to protein in the presence of ligand of interest.
Compound of interest was first prepared in DMSO stock (typical concentration: 10 mM). Sample of 20 μL was then added into the 96-well PCR plate, where it consisted of 3 μM. […] Final percentage of DMSO resided in the sample was 2%. The sample plate was heated from 30° C. to 90° C. with thermal ramping rate of 1 ° C./min. The fluorescence signals were acquired with excitation and emission wavelengths centered at 490 and 560 nm respectively. The instrument thermal stability was ±0.2° C. The melting temperatures (Tm) for ERK protein under aforementioned conditions occurred at 61.0±0.2° C. and 64.8±0.2° C. respectively.
Theoretical Basis for TdF-based Ligand Binding Affinity Constant
The derivation of TdF-based ligand binding affinity constant (Kd) followed closely those previously formulated by Brandts and Lin [2]. In brief, the binding constant of the ligand at the Tm is expressed as below: […]
where T0 is the midpoint of unfolding for unliganded protein and Tm is the midpoint of unfolding in presence of ligand. [LTm] is free ligand at Tm. The ΔHu and ΔCpu are the enthalpy of unfolding and heat capacity change of unfolding for the protein respectively. Following algorithm derived by Winsor and coworker, the T0, ΔHu and ΔCpu can be determined separately from nonlinear regression fitting the protein alone melting curve:
Where F(T) is the observed fluorescence intensity at any temperature T, Yn and Yu are the predicted fluorescence intensities for fully folded and unfolded protein, respectively; mn and mu are slope correction for changes in Yn and Yu with respect to changes in temperature (analogously replace T0 with Tm in the above equation for liganded protein to yield Tm).
where ΔHL(T) is the van't Hoff enthalpy of ligand binding at temperature T and ΔCpL is the heat capacity upon ligand binding. For simplicity, the ΔCpL and ΔHL(T) were set to zero and −7 kcal/mol respectively. The uncertainty in the calculated ligand binding affinity constant was estimated to be ±50%.

[2] = molecular target: fully phosphorylated, active Mouse ERK2 protein (Mus musculus, UniProt P63085); test: Active ERK2 (aERK) assay, IMAP format; type: biochemical; details: 30 min preincubation; 1 μM substrate peptide, 30 μM ATP; fluorescence polarization; read-out: aERK2 IC50
Sequence of fully phosphorylated, active Mouse ERK2 protein (P63085 whole entry): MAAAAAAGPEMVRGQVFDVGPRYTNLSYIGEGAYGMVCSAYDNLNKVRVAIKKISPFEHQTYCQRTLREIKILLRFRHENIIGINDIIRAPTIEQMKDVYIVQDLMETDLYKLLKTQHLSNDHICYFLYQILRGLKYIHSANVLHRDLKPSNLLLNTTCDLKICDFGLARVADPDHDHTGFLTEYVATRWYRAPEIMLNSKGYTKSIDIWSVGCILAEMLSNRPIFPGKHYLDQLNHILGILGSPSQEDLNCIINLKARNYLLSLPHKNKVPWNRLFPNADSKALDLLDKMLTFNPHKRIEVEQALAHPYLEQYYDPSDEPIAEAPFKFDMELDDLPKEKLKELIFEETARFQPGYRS
Experimental: Active ERK2 (aERK) Assay:
Activated ERK2 activity was also determined in the IMAP assay format using the procedure outlined above. 1 μl of 25× compound was added to 14 μl of kinase buffer containing 0.25 ng fully phosphorylated, active Mouse ERK2 protein. Following a 30 minute incubation, the reactions were initiated by addition of 10 μl of kinase buffer containing 1 μM ERK2 IMAP substrate peptide (0.9 μM unlabeled IPTTPITTTYFFFK--CONH2 and 100 nM IPTTPITTTYFFFK(5-carboxyfluorescein)-CONH2) and 30 μM ATP. Reactions proceeded for 30 minutes before termination by addition of 60 μl IMAP detection beads in binding buffer. Plates were read as above after 30 minute binding equilibration. Active compounds were reconfirmed in an independent assay.

Sequence of unphosphorylated Mouse ERK2 protein (inactive ERK2) (P63085 whole entry): as above

| Structure (SMILES) | IC50 [1] | Kd (ERK protein) | IC50 [2] |
| --- | --- | --- | --- |
| O=C(Nc1ccc2[nH]nc(-c3ccncc3)c2c1)C1CN(Cc2cc(Cl)cc(Cl)c2)CCO1 (stereo not drawn) [Compound 50, 4-[(3,5-DICHLOROPHENYL)METHYL]-N-[3-(4-PYRIDINYL)-1H-INDAZOL-5-YL]-2-MORPHOLINECARBOXAMIDE] | 8.84 µM | 0.5 µM | 8.68 µM |
| CC(C)Oc1ccc(-c2n[nH]c3ccc(NC(=O)C4CN(Cc5ccccc5)CCO4)cc23)cn1 (stereo not drawn) [Compound 1, N-[3-[6-(1-METHYLETHOXY)-3-PYRIDINYL]-1H-INDAZOL-5-YL]-4-(PHENYLMETHYL)-2-MORPHOLINECARBOXAMIDE] | 0.532 µM | 0.24 µM | 1 µM |
| CSc1ccc(CN2CCOC(C(=O)Nc3ccc4[nH]nc(-c5ccncc5)c4c3)C2)cc1 (stereo not drawn) [Compound 34, 4-[[4-(METHYLTHIO)PHENYL]METHYL]-N-[3-(4-PYRIDINYL)-1H-INDAZOL-5-YL]-2-MORPHOLINECARBOXAMIDE] | 0.508 µM | 0.423 µM | 0.957 µM |
| O=C(Nc1ccc2[nH]nc(-c3ccncc3)c2c1)C1CN(CCCc2ccccc2)CCS1 (stereo not drawn) [Compound 67, 4-(3-PHENYLPROPYL)-N-[3-(4-PYRIDINYL)-1H-INDAZOL-5-YL]-2-THIOMORPHOLINECARBOXAMIDE] | – | – | 1 µM |
| CN1CC(Cc2ccccc2)CC(C(=O)Nc2ccc3[nH]nc(-c4ccncc4)c3c2)C1 (stereo not drawn) [Compound 78, 1-METHYL-5-(PHENYLMETHYL)-N-[3-(4-PYRIDINYL)-1H-INDAZOL-5-YL]-3-PIPERIDINECARBOXAMIDE] | – | – | 0.0019 µM |
| O=C(Nc1ccc2[nH]nc(-c3ccncc3)c2c1)C1CN(CCc2ccccc2)CCS1 (stereo not drawn) [Compound 68, 4-(2-PHENYLETHYL)-N-[3-(4-PYRIDINYL)-1H-INDAZOL-5-YL]-2-THIOMORPHOLINECARBOXAMIDE] | – | – | 0.895 µM |
| N#Cc1ccc(CN2CCOC(C(=O)Nc3ccc4[nH]nc(-c5ccncc5)c4c3)C2)cc1 (stereo not drawn) [Compound 30, 4-[(4-CYANOPHENYL)METHYL]-N-[3-(4-PYRIDINYL)-1H-INDAZOL-5-YL]-2-MORPHOLINECARBOXAMIDE] | 1.28 µM | 3.29 µM | – |
| O=C(Nc1ccc2[nH]nc(-c3ccncc3)c2c1)C1CN(Cc2ccc(Cl)cc2)CCO1 (stereo not drawn) [Compound 27, 4-[(4-CHLOROPHENYL)METHYL]-N-[3-(4-PYRIDINYL)-1H-INDAZOL-5-YL]-2-MORPHOLINECARBOXAMIDE] | 0.538 µM | 3.53 µM | – |
| CCCCNC(=O)c1n[nH]c2ccc(NC(=O)C3CN(Cc4ccccc4F)CCS3)cc12 (stereo not drawn) [Compound 76, N-BUTYL-5-[[[4-[(2-FLUOROPHENYL)METHYL]-2-THIOMORPHOLINYL]CARBONYL]AMINO]-1H-INDAZOLE-3-CARBOXAMIDE] | 0.873 µM | 0.92 µM | – |
| COc1ccc(CN2CCOC(C(=O)Nc3ccc4[nH]nc(-c5ccncc5)c4c3)C2)c(F)c1 (stereo not drawn) [Compound 38, 4-[(2-FLUORO-4-METHOXYPHENYL)METHYL]-N-[3-(4-PYRIDINYL)-1H-INDAZOL-5-YL]-2-MORPHOLINECARBOXAMIDE] | 0.556 µM | 0.588 µM | – |

Next, values leading:

| IC50 [1] | Kd (ERK protein) | IC50 [2] | Structure (SMILES) |
| --- | --- | --- | --- |
| 0.171 µM | 0.0356 µM | 0.245 µM | O=C(Nc1ccc2[nH]nc(-c3ccncc3)c2c1)C1CCN(Cc2ccccc2)C1 (stereo not drawn) [Compound 64, 1-(PHENYLMETHYL)-N-[3-(4-PYRIDINYL)-1H-INDAZOL-5-YL]-3-PYRROLIDINECARBOXAMIDE] |
| 0.0694 µM | 0.008 µM | 0.124 µM | O=C(Nc1ccc2[nH]nc(-c3ccncc3)c2c1)C1CNCC(c2ccccc2)C1 (stereo not drawn) [Compound 79, 5-PHENYL-N-[3-(4-PYRIDINYL)-1H-INDAZOL-5-YL]-3-PIPERIDINECARBOXAMIDE] |
| 0.166 µM | 0.062 µM | 1.84 µM | O=C(Nc1ccc2[nH]nc(-c3ccncc3)c2c1)C1CN(Cc2ccccc2)CCS1 (stereo not drawn) [Compound 36, 4-(PHENYLMETHYL)-N-[3-(4-PYRIDINYL)-1H-INDAZOL-5-YL]-2-THIOMORPHOLINECARBOXAMIDE] |
| – | 0.0345 µM | 0.287 µM | O=C(Nc1ccc2[nH]nc(-c3ccncc3)c2c1)[C@@H]1CCN(Cc2ccccc2)C1 [Compound 62, 1-(PHENYLMETHYL)-N-[3-(4-PYRIDINYL)-1H-INDAZOL-5-YL]-3(R)-PYRROLIDINECARBOXAMIDE] |
| – | 0.0259 µM | 0.192 µM | CC(c1ccccc1)N1CCC[C@H](C(=O)Nc2ccc3[nH]nc(-c4ccncc4)c3c2)C1 (stereo partly drawn) [Compound 73, 1-(1-PHENYLETHYL)-N-[3-(4-PYRIDINYL)-1H-INDAZOL-5-YL]-3(S)-PIPERIDINECARBOXAMIDE] |
| – | 0.222 µM | 1 µM | O=C(Nc1ccc2[nH]nc(-c3ccncc3)c2c1)C1CN(Cc2ccccc2)CCC12OCCO2 (stereo not drawn) [Compound 72, 8-(PHENYLMETHYL)-N-[3-(4-PYRIDINYL)-1H-INDAZOL-5-YL]-1,4-DIOXA-8-AZASPIRO[4.5]DECANE-6-CARBOXAMIDE] |
| 0.114 µM | 0.038 µM | – | O=C(Nc1ccc2[nH]nc(-c3ccncc3)c2c1)C1CN(Cc2ccccc2Br)CCS1 (stereo not drawn) [Compound 6, 4-[(2-BROMOPHENYL)METHYL]-N-[3-(4-PYRIDINYL)-1H-INDAZOL-5-YL]-2-THIOMORPHOLINECARBOXAMIDE] |
| 0.0273 µM | 0.009 µM | – | O=C(Nc1ccc2[nH]nc(-c3ccncc3)c2c1)C1CCCN(Cc2ccccc2F)C1 (stereo not drawn) [Compound 22, 1-[(2-FLUOROPHENYL)METHYL]-N-[3-(4-PYRIDINYL)-1H-INDAZOL-5-YL]-3-PIPERIDINECARBOXAMIDE] |
| 0.0778 µM | 0.017 µM | – | O=C(Nc1ccc2[nH]nc(-c3ccncc3)c2c1)C1CN(Cc2ccccc2Cl)CCO1 (stereo not drawn) [Compound 15, 4-[(2-CHLOROPHENYL)METHYL]-N-[3-(4-PYRIDINYL)-1H-INDAZOL-5-YL]-2-MORPHOLINECARBOXAMIDE] |
| 0.0511 µM | 0.01 µM | – | O=C(Nc1ccc2[nH]nc(-c3ccncc3)c2c1)C1CN(Cc2ccccc2)CCO1 (stereo not drawn) [Compound 20, 4-(PHENYLMETHYL)-N-[3-(4-PYRIDINYL)-1H-INDAZOL-5-YL]-2-MORPHOLINECARBOXAMIDE] |
| 0.13 µM | 0.004 µM | – | O=C(Nc1ccc2[nH]nc(-c3ccncc3)c2c1)C1CCCN(Cc2ccccc2Br)C1 (stereo not drawn) [Compound 21, 1-[(2-BROMOPHENYL)METHYL]-N-[3-(4-PYRIDINYL)-1H-INDAZOL-5-YL]-3-PIPERIDINECARBOXAMIDE] |
